Experimental data taken from patent publication US5240717A, “Process for mannose and mannose isomerase production using mannose isomerase-producing pseudomonas” (Amano Pharmaceutical Co., Ltd., priority 1990, dated 1993).

System: mannose isomerase
Assay: mannose isomerase activity of the enzyme of the invention (optimum conditions, substrates, inhibitors)
Format: biochemical, Pseudomonas sp. AM-9582
Conditions: not given
Procedure: It is active in a pH range from about 6 to 11, but the optimum pH is about 8 (under the reaction condition of 50° C. for 30 minutes, in 0.1M phosphate buffer).
It is active up to about 70° C., but the optimum temperature is about 55° C. under the reaction conditions of 0.1M mannose, 0.05M Tris buffer (pH 7.0) for 30 minutes.
(§1) Into 0.5 ml of a 0.1M phosphate buffer (pH 7.0) containing 0.2M mannose dissolved therein is added a suitable amount of the enzyme, the total volume is made up with water to 1.0 ml, and the reaction mixture is incubated at 50° C. The amount of fructose formed is determined by the cysteine-carbazole method. The amount of the enzyme forming 1 micromole of fructose per one minute under this condition is defined as one unit.

SMILES	Substrate specificity (activity of the enzyme on the sugar)
O=C[C@@H](O)[C@H](O)[C@H](O)CO [D-arabinose]	not substantially
C[C@@H](O)[C@H](O)[C@H](O)[C@@H](O)C=O [D-fucose]	not substantially
O=C[C@H](O)[C@@H](O)[C@H](O)[C@H](O)CO [D-glucose]	not substantially
O=C[C@@H](O)[C@@H](O)[C@H](O)CO [D-lyxose]	active
O=C[C@@H](O)[C@@H](O)[C@H](O)[C@H](O)CO [D-mannose]	active
C[C@@H](O)[C@@H](O)[C@H](O)[C@H](O)C=O [D-rhamnose]	not substantially
O=C[C@H](O)[C@H](O)[C@H](O)CO [D-ribose]	not substantially
O=C[C@H](O)[C@@H](O)[C@H](O)CO [D-xylose]	not substantially
O=C[C@H](O)[C@@H](O)[C@@H](O)CO [L-arabinose]	not substantially
C[C@H](O)[C@@H](O)[C@@H](O)[C@H](O)C=O [L-fucose]	not substantially
C[C@H](O)[C@H](O)[C@@H](O)[C@@H](O)C=O [L-rhamnose]	not substantially
O=C[C@@H](O)[C@H](O)[C@@H](O)CO [L-xylose]	not substantially

Same assay, conditions: 5×10^-3 M of inhibitor

SMILES	Inhibition of the enzyme
O=[N+]([O-])[O-].[Ag+] [AgNO3]	strongly inhibited
[Cl][Al]([Cl])[Cl] [AlCl3]	strongly inhibited
O=S(=O)([O-])[O-].[Fe+2] [FeSO4]	strongly inhibited
[Cl][Hg][Cl] [HgCl2]	strongly inhibited
O=C(O)c1cc[c]([Hg][Cl])cc1 [p-chloromercury benzoate]	strongly inhibited

System: Salmonella
Assay: not given
Conditions: cited from earlier work

SMILES	Growth of Salmonella
O=C[C@@H](O)[C@@H](O)[C@H](O)[C@H](O)CO [D-mannose]	inhibits the growth

System: mannose isomerase
Assay: thermal and pH stability of the enzyme of the invention (residual activity)
Format: physicochemical, Pseudomonas sp. AM-9582
Conditions: presence of calcium ions
Procedure: The residual activities after heating treatment at 60° C. for 5, 10, 15, 20, 30 minutes in 0.05M Tris buffer (pH 7.0) are, about 90%, 68%, 52%, 42%, 30% respectively.
The residual activity was measured after the enzyme was incubated in 0.1M buffer (acetate or phosphate buffer) of various pH at room temperature (25° C.) for 3 hours. As the result, it is stable in the pH range 6 to 9.
as §1

SMILES	Effect on thermal stability of the enzyme
[Ca+2] [calcium ions]	increases the thermal stability
